Where two headings read alike, the source gives them in different places.
How the values were obtained:
[1] = Cytotoxicity, CellTiter-Blue, J-Lat A2 cells; type: cell-based; settings: human, 48 h treatment, mean ± SD, n = 3
[2] = system: ACH-2 cells latently infected with HIV-1; assay: HIV reactivation, Gag p24 ELISA of supernatant, ACH-2 cells; type: cell-based; settings: Human immunodeficiency virus 1, ACH-2, 48 h, read-out: EC50 HIV activation ACH-2
J-Lat A2 cells = assay: HIV reactivation, GFP expression by flow cytometry, J-Lat A2 cells; type: cell-based, HIV-1; settings: Human immunodeficiency virus 1, J-Lat A2, 48 h, read-out: EC50 HIV activation J-Lat A2
[3] = system: U1 cells latently infected with HIV-1; assay: HIV reactivation, Gag p24 ELISA of supernatant, U1 cells; type: cell-based; settings: Human immunodeficiency virus 1, 48 h, read-out: EC50 HIV activation U1
[4] = system: OM-10.1 cells latently infected with HIV-1; assay: HIV activation dose response, Gag p24 ELISA of supernatant, OM-10.1 cells; type: cell-based; settings: Human immunodeficiency virus 1, 48 h, read-out: EC50 HIV activation OM-10.1
J-Lat 10.6 cells = assay: HIV reactivation, GFP expression by flow cytometry, J-Lat 10.6 cells; type: cell-based, HIV-1; settings: for EC50: Human immunodeficiency virus 1, J-Lat 10.6, 48 h, read-out: EC50 HIV activation J-Lat 10.6; for GFP expression with respect to the PMA control set to 100: J-Lat 10.6, 48 h, 0.5 µM PKCa, 0.3 µM HDACi
[5] = Cytotoxicity, CellTiter-Blue, U1 cells; type: cell-based; settings: human, 48 h treatment, mean ± SD, n = 3
[6] = Cytotoxicity, CellTiter-Blue, ACH-2 cells; type: cell-based; settings: human; 48 h treatment; mean ± SD, n = 3
[7] = Cytotoxicity, CellTiter-Blue, J-Lat 10.6 cells; type: cell-based; settings: human, 48 h treatment, mean ± SD, n = 3
[8] = Cytotoxicity, CellTiter-Blue, OM-10.1 cells; type: cell-based; settings: human, 48 h treatment, mean ± SD, n = 3
total CD4+ T-cells = assay: CD4 and CD3 surface expression by flow cytometry; type: cell-based, human; settings: 24 h, 0.5 µM PKCa, 0.3 µM HDACi, untreated about 97%
[9] = system: OM-10.1, U1, ACH-2, J-Lat 10.6 and J-Lat A2 cells; type: cell-based, HIV-1; settings: read-out: EC50 HIV activation
[10] = system: OM-10.1 cells latently infected with HIV-1; assay: Envelope gp120 expression by flow cytometry, OM-10.1 cells; type: cell-based; settings: live cells
[11] = system: ACH-2 cells latently infected with HIV-1; assay: Envelope gp120 expression by flow cytometry, ACH-2 cells; type: cell-based; settings: live cells
[12] = system: OM-10.1 cells latently infected with HIV-1; assay: HIV RNA by real-time qRT-PCR, OM-10.1 cells; type: cell-based; settings: 48 h
[13] = system: OM-10.1 cells latently infected with HIV-1; assay: Gag p24 immunoblot with densitometry, OM-10.1 cells; type: cell-based; settings: 48 h
[14] = Human immunodeficiency virus 1, range over all the cell lines tested, 48 h

| Compound | CC50 at 48 h [1] [nM] | EC50 [2] [nM] | EC50 (J-Lat A2 cells) [nM] | EC50 [3] [nM] | EC50 [4] [nM] | EC50 (J-Lat 10.6 cells) [nM] | CC50 at 48 h [5] [nM] | CC50 at 48 h [7] [nM] | cells expressing CD4 (CD4 expression, R1) (total CD4+ T-cells) | GFP expression with respect to the PMA control set to 100 (J-Lat 10.6 cells) [%] | CC50 [6] [nM] | EC50 [9, 14] [nM] | CC50 [8] [nM] | further results |
| --- | --- | --- | --- | --- | --- | --- | --- | --- | --- | --- | --- | --- | --- | --- |
| CC(C)C1C(=O)NC(CO)Cc2c[nH]c3cccc(c23)N1C (single isomer, unassigned; (-)) [(-)-Indolactam V] | > 8000 | 180 ± 30 | 320 ± 50 | 120 ± 20 | 90 ± 20 | 200 ± 40 | > 8000 | > 8000 | 5.5% |  |  |  |  | CC50 at 48 h [6]: > 8000 nM; CC50 at 48 h [8]: > 8000 nM; EC50 ([9]; Human immunodeficiency virus 1, 48 h): 90 to 320 nM |
| CC(C)[C@H](C(=O)Nc1ccc(C(=O)NO)cc1)c1ccccc1 [AR-42] | 530 ± 50 | 240 ± 40 | 440 ± 50 | 260 ± 100 | 530 ± 80 | 550 ± 20 | ~8000 | 450 ± 20 |  | 10.2 | 410 ± 10 | 240 to 550 |  | CC50 at 48 h ([8]; OM-10.1 cells): 400 ± 10 nM |
| O=C(/C=C/c1cccc(S(=O)(=O)Nc2ccccc2)c1)NO [Belinostat] | 1400 ± 20 | 440 ± 30 | 940 ± 50 | 770 ± 10 | 880 ± 400 | 940 ± 30 | > 8000 | 1400 ± 60 |  |  | 1100 ± 200 | 440 to 940 |  | CC50 at 48 h ([8]; OM-10.1 cells): 2700 ± 200 nM |
| CCN(CC)Cc1ccc2cc(COC(=O)Nc3ccc(C(=O)NO)cc3)ccc2c1 [Givinostat] | 1200 ± 20 | 320 ± 40 | 700 ± 50 | 630 ± 20 | 450 ± 130 | 880 ± 40 | ~4000 | 930 ± 40 |  | 2.9 | 630 ± 30 |  | 420 ± 10 |  |
| CN(C)Cc1c(C(=O)NCCOc2ccc(C(=O)NO)cc2)oc2ccccc12 [PCI-24781] | 540 ± 30 | 370 ± 40 | 380 ± 50 | 460 ± 30 | 350 ± 40 | 450 ± 20 | ~8000 | 400 ± 20 |  | 6.5 | 310 ± 20 |  | 400 ± 20 |  |
| CCCCCCCCCCCCCC(=O)O[C@@H]1[C@@H](C)[C@@]2(O)[C@@H](C=C(CO)C[C@]3(O)C(=O)C(C)=C[C@@H]23)[C@@H]2C(C)(C)[C@]12OC(C)=O [PMA, phorbol 12-myristate 13-acetate] |  |  |  |  |  |  |  |  |  |  |  |  |  | cells expressing gp120 ([10]; 24 h): 50%; cells expressing gp120 ([10]; 48 h): 24%; cells expressing gp120 ([11]; 24 h): 46%; cells expressing gp120 ([11]; 48 h): 43%; HIV-1 RNA expression, fold with respect to the untreated control ([12]; cell-associated RNA): about 10 fold |
| CC(=O)O[C@@]12C[C@@H](C)[C@@]3(O)[C@@H](C=C(CO)C[C@]4(O)C(=O)C(C)=C[C@@H]34)[C@@H]1C2(C)C [Prostratin] | > 8000 | 310 ± 70 | 870 ± 30 | 300 ± 30 | 410 ± 30 | 680 ± 10 | > 8000 | > 8000 | about 53% | 37 | > 8000 | 300 to 870 | > 8000 |  |
| CC(C)[C@H]1C(=O)N[C@H](CO)Cc2cc(NC(=O)/C=C/C=C/c3ccc(C(F)(F)F)cc3)ccc2N1C [TPPB] | > 8000 | 70 ± 10 | 490 ± 30 | 210 ± 10 | 130 ± 10 | 510 ± 80 | > 8000 | > 8000 | 18% |  | > 8000 |  | > 8000 |  |
| TNFα |  |  |  |  |  |  |  |  |  |  |  |  |  | cells expressing gp120 ([10]; 24 h): 70%; cells expressing gp120 ([10]; 48 h): 42%; cell-associated Gag p24, fold compared to treatment with PMA ([13]; immunoblot densitometry): 12–30 fold; extracellular p24, fold with respect to PMA-treated control ([13]; viral lysate immunoblot): 1.5 fold; HIV-1 RNA expression, fold with respect to the untreated control ([12]; cell-associated RNA): 300 fold; HIV-1 RNA expression, fold with respect to the PMA-treated control ([12]; cell-associated RNA, 0.5 µM PKCa, 0.3 µM HDACi): about 30 fold; extracellular viral RNA, fold with respect to PMA-treated control ([12]; culture supernatant): 1.5 fold |

From publication PMC7354613 (Viruses, 2020)
